Measurements published in publication PMC6591174, “The beneficial androgenic action of steroidal aromatase inactivators in estrogen-dependent breast cancer after failure of nonsteroidal drugs” (Cell Death & Disease, 2019).

What was measured:
[1] = system: AR protein in MCF-7 cells; experiment: AR protein expression by western blot and immunofluorescence; type: cell-based, human; settings: incubation 3 days
Protocol: Fig. 3 Influence of indicated compounds on the expression of the AR. […] AR protein expression was analyzed by western blot as described in “Materials and methods”. b The densitometric evaluation of the bands is calculated by ImageJ. The numbers represent the densitometric value relative to untreated control. […] Typical image is shown. Scale bars: 10 μm
Total cell proteins were obtained from 70% confluent cell cultures. Protein extracts of whole cells (50 μg) were denatured, separated by SDS–PAGE and transferred to polyvinylidene fluoride membranes. After blocking with 3% bovine serum albumin in Tris-buffered saline-Tween, membranes were probed overnight at 4 °C. […] After incubation with the appropriate secondary antibody, results were detected using ECL detection reagents. Immunoreactive bands were quantified by densitometry using ImageJ software.
MCF-7 cells were seeded on 24-well plates (2 × 10^4 cells/well) with a poly-L-lysine-coated glass coverslip per well in 10% PRF–CT. […] Cells were visualized with a ×40 objective and a Qimaging digital camera coupled to an Olympus X71 fluorescence microscope using a red fluorescent protein filter.

[2] = system: prostate (P), seminal vesicle (SV), levator ani muscle (LA); experiment: Hershberger assay in orchiectomized rats; type: in vivo, Wistar male rats; settings: doses as in Fig. 5, s.c. once a day, 12 days, castrated rats
Protocol: Fig. 5 Estimation of the androgenic and myotrophic activities of the indicated compounds obtained by the Hershberger Assay. Wistar male rats were orchiectomized (orchi) or sham-operated (intact) under ether anesthesia. After 14 days of endogenous hormonal decline, animals were randomly allocated to treatment and vehicle groups (n = 6). The numbers at the end of the abbreviations correspond to the dose in mg/kg body weight of the animal. Flutamide was given by gavage (10 mg/kg/day). […] Then the animals were treated once a day. The rats were sacrificed after completion of the 12-day treatment. Following removal, wet weights of the prostate (P), seminal vesicle (SV), levator ani muscle (LA) were determined. a Size and shape of P, SV and LA at the end of the treatment period. b, c, and d, influence of treatment with the compounds alone or together with the antiandrogen flutamide at the indicated doses on the weight of the organs (P, SV and LA) of the castrated animals. The mean wet weight is represented by the bars in the graphs. Values are means ± SEM; bars, SEM. *P ≤ 0.05, **P ≤ 0.01 vs. control
The Hershberger assay was performed according to the guidelines of the rodent Hershberger assay. Male Wistar rats (140 g, 5–6 weeks) were orchiectomized (orchi) or sham-operated (intact) under ether anesthesia. After 14 days of endogenous hormonal decline, animals were randomly allocated to treatment and vehicle groups (n = 6); orchi group = orchi rats receiving sham injections; intact group = sham-operated rats receiving sham injections; treatment group = orchi rats receiving drugs injections by subcutaneous. The antiandrogen flutamide given by gavage (10 mg/kg/day). Drugs were dissolved in ethanol and diluted in corn oil. The animals were treated once a day. Rats were sacrificed after completion of the 12-day treatment. Following removal, the wet weights of the P, SV, and LA muscle were determined. The data of tissue weights are presented as mean ± SEM.

[3] = target: T1, Rat AR ligand-binding domains (His-GST-ARLBD) (Rattus norvegicus, UniProt P15207); experiment: AR fluorescence polarization-based competitive hormone-binding assay (PolarScreen AR Competitor Assay, Red); settings: 25 nM His-GST-ARLBD, 2 nM Fluormone AL Red; read-out: IC50 of competitive binding to AR
T1 construct: purchased Invitrogen
T1 sequence (P15207 651-882 limits assumed): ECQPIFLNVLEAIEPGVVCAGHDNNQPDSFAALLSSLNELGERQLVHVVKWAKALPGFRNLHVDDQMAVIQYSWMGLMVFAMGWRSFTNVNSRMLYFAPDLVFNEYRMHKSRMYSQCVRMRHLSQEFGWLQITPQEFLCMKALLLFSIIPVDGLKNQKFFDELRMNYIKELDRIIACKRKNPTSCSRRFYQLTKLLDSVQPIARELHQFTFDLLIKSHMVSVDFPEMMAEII
Text: Fig. 4 The affinity of indicated compounds to the AR and their regulation of AR transcriptional activity. a AR fluorescence polarization-based competitive hormone-binding assays. […] Curve fitting was done using GraphPad Prism software (version 7.00). […] ARE(3×)-regulated dual-luciferase activity in U2-OS cells under steroid-free conditions. Cells were transiently transfected with pcDNA3.1-AR and ARE3-luc2P (firefly luciferase reporter plasmids) and the internal normalization control pRL-TK (Renilla luciferase reporter plasmid). Six hours after transfection, cells were treated as indicated. Then they were assayed 48 h after transfection for dual-luciferase activity. […] Briefly, compounds were dissolved in DMSO and mixed at 2% (vol/vol) with AR Red Screening Buffer. The tested compounds were subsequently serially diluted in two-fold increments with AR Red Screening Buffer and mixed 1:1 (vol/vol) with a 2 × AR/Fluormone AL complex. Competition for binding AR between Fluormone AL and the tested compounds was allowed to come to equilibrium for 4 h and not more than 20 h at room temperature in the dark. Fluorescence polarization value (mP) was measured on a fluorescence polarization plate reader (Biotech cytation5). Each compound dose was performed in triplicate, relative error was calculated from the standard error of the mean (SEM), and curve fitting was performed using GraphPad Prism™ 7.0 software.

SMILES | expression of the AR protein [1] | Cyclin D1 mRNA and protein (cyclin D1 in MCF-7 cells) | myotrophic effect (LA) [2] | IC50 [3] [nM] | androgenic effect (P and SVs, size and wet weight) [2]
C[C@]12CCC(=O)C[C@@H]1CC[C@@H]1[C@@H]2CC[C@]2(C)[C@@H](O)CC[C@@H]12 [DHT, dihydrotestosterone] | enhanced considerably | decrease |  |  | 
C[C@]12CC[C@H]3[C@@H](CCC4=C(O)C(=O)CC[C@@]43C)[C@@H]1CC[C@@H]2O [4-OHT, 4-hydroxytestosterone] |  |  | a little more myotrophic than 17-HEXE | 18.2 | 
C=C1C[C@H]2[C@@H]3CC[C@H](O)[C@@]3(C)CC[C@@H]2[C@@]2(C)C=CC(=O)C=C12 [17-HEXE, 17-hydroexemestane] |  |  |  | 10.4 | a little more androgenic than 4-OHT
